In patent US6652633B2, “Fire retardant” (Arch Wood Protection, Inc., priority 2001, dated 2003):

Assay: potentiometric titration against 0.1 N NaOH with mannitol complexation (equivalence points)
Format: physicochemical
Details: aqueous GUP/boric acid solution complexed with mannitol; potentiometric titration of GUP/boric acid solutions, samples complexed with mannitol; read-out: pKa (equivalence point)
Protocol: The mixture was heated to approximately 48° C. to dissolve all of the solids, and a sample for analysis taken. The temperature of the solution was then raised and maintained between 70° C. and 90° C. for 3.5 hours. Samples of the solution were analyzed by potentiometric titration every hour, and at the end of the 3.5 hour reaction period.
The samples were titrated against approximately 0.1 N NaOH (standardized against a potassium hydrogen phthalate standard from NIST). Because the pKa of GUP is very close to that for boric acid, the samples were each complexed with 10 g of mannitol to form a boric acid ester having a lower pKa that is more easily distinguishable from that of GUP. The results are given in Table 1,below, and plotted on FIG. 1.
Approximately 0.1000 g of solid product was combined with about 10 g mannitol and titrated against 0.1 N NaOH. The mannitol was added to react with the boric acid to for a borate ester, which has a much lower equivalence point than GUP. […] The loss in yield was attributable to the short reaction time allowed in this example. A kinetic analysis was subsequently undertaken, and it was determined that an increase in GUP yield could be obtained by increasing the reaction time, as indicated in Table 4 below.

## N=C(N)NC(N)=O [GUP, guanylurea phosphate]
  pKa: 7.25
